Results as given in PubChem BioAssay AID1902 (Broad Institute, 2009).
Active and inactive are the calls of the source.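 The calls were made as follows: active = EC50 no more than a set limit of log units above the highest dose; inactive = the rest.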

The compounds below were run against S. pyogenes SKKanGAS, kanamycin survival, BacTiterGlo, 6 h (assay: SKKanGAS survival reduction under kanamycin, dose response, streptokinase promoter inhibitor project, SKKanGAS strain, luminescence, dose confirmation (AID 1902);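 also: lower survival reflects blocked streptokinase promoter driving kanamycin resistance gene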).
`O=[N+]([O-])/C=C/c1ccc2c(ccn2Cc2ccccc2)c1` gave an EC50 of 3.04 µM. `CC(C)c1nc(N2CCCC2)c(C#N)c2c1CCCC2` gave an EC50 of 4.1 µM. With `CC(C(=O)NC1C(=O)N2C(C(=O)O)=C(CSc3nnnn3C)CSC12)n1cc(Br)cn1` (configuration not stated) the EC50 was < 0.06 µM. In the case of `CCCCCn1c(CN2CCN(c3cc(Cl)ccc3C)CC2)nc2c1c(=O)[nH]c(=O)n2C`, the EC50 is reported as 2.5 µM. `Clc1ccc(-c2nnnn2-c2ccc(Cl)c(Cl)c2)cc1Cl` was tested, and the EC50 was 8.09 µM. `O=C(Nc1cccc(-c2nnc(-c3ccccc3)o2)c1)c1ccc(Br)o1` gave an EC50 of 8.48 µM. Compound `O=C(N/N=C/c1ccccc1O)NC12CC3CC(CC(C3)C1)C2` has an EC50 of 8.68 µM. Compound `COc1ccccc1Sc1nc(-c2ccccn2)ncc1OC` has an EC50 of 14.7 µM. For `O=c1c2c(n3nnnc3n1Cc1ccccc1)-c1ccccc1CC21CCCC1`, the EC50 was 1.67 µM. Work on `O=C(O)c1ccc(CSc2nc(-c3ccc(Cl)cc3)cc(C(F)(F)F)n2)cc1` yielded an EC50 of 2.69 µM. With `CCCn1c(NC(=O)c2ccc(Cl)c(S(=O)(=O)N3CCCC3)c2)nc2ccccc21` the EC50 was 1.67 µM. `COc1ccc(Cl)cc1C(=O)NNC(=S)NC(=O)c1ccc(F)c(F)c1` showed an EC50 of 0.139 µM. For `C/C(=N\Nc1ccc(C(=O)O)cc1)c1ccc2c(c1)Nc1ccccc1S2`, the EC50 was 2.45 µM. For `CCOC(=O)c1sc2ncnc(NCC(c3cccs3)N(C)C)c2c1C` (configuration not stated), the EC50 was 7.95 µM. With `Cc1cc(C(F)F)nn1CC(=O)NC1C(=O)N2C(C(=O)O)=C(CSc3nnnn3C)CSC12` (configuration not stated) the EC50 was < 0.06 µM. `O=C(NCc1ccc2c(c1)OCO2)C(=O)NCC1OCCN1S(=O)(=O)c1ccc(Br)cc1` (configuration not stated) was tested, and the EC50 was > 15 µM (inactive). `CC(Oc1ccc(Cl)cc1Cl)c1nc(-c2ccc(NC(=O)c3ccco3)cc2)no1` (configuration not stated) showed an EC50 of 5.82 µM. Work on `CCOC(=O)c1c(NC(=O)c2cccs2)sc2c1CCN(C(=O)OCC)C2` yielded an EC50 of 13 µM. `Cn1cnnc1SCc1ccc(C(=O)N=Nc2c(O)n(Cc3ccc(Cl)cc3)c3ccccc23)cc1` showed an EC50 of 4.51 µM. `CC(C)C[C@H](NC(=O)c1[nH]cnc1C(=O)N[C@H](C)c1ccccc1)C(=O)OC(C)(C)C` showed an EC50 of 6.02 µM. For `CC(C)c1ccc(OCC(=O)NNC(=S)NC(=O)c2ccco2)c(Br)c1`, the EC50 was < 0.06 µM. `COc1cc(/C=N/Nc2nc(Nc3ccccc3)nc(-n3nc(C)cc3C)n2)cc(OC)c1OC` showed an EC50 of 3.14 µM. `Cc1cc(C(=O)N/N=C/c2cc(N=Nc3ccccc3)ccc2O)n[nH]1` gave an EC50 of 2.02 µM. Compound `Cc1ccc2nc(N3C(=O)C(O)=C(C(=O)c4ccco4)C3c3cccs3)sc2c1` (configuration not stated) has an EC50 of 2.1 µM. Compound `Cc1cc(O)c(NC(=S)NC(=O)c2ccc(-c3ccc(Cl)cc3)o2)cc1C` has an EC50 of 0.76 µM. With `Cc1nnc(SC(C(=O)Nc2cc(Cl)cc(Cl)c2)c2ccccc2)[nH]c1=O` (configuration not stated) the EC50 was 10.6 µM. With `CC(CNC(=S)Nc1cc(F)cc(F)c1)CSc1ccc(Cl)cc1` (configuration not stated) the EC50 was 8.56 µM. Work on `C/C(=N\NC(=O)c1ccc(C)cc1)c1c(C)[nH]n(-c2ccccc2)c1=O` yielded an EC50 of 2.15 µM. With `O=[N+]([O-])c1ccc(O)c(/C=N/Nc2ncnc3c2cnn3-c2ccccc2)c1` the EC50 was 0.742 µM. For `Cn1nnc(-c2ccc(OCc3ccccc3F)cc2)n1`, the EC50 was 9.46 µM. With `COc1ccc(CCN2CC(C(=O)NCCc3ccccn3)CCC2=O)cc1` (configuration not stated) the EC50 was > 15 µM (inactive). Compound `Cc1ccccc1NC1=C/C(=N\S(=O)(=O)c2ccc(C(=O)O)cc2)c2ccccc2C1=O` has an EC50 of 1.9 µM. With `OC(c1ccc(OCc2ccccc2)cc1)c1nnc(-c2ccccc2)o1` (configuration not stated) the EC50 was 13.4 µM. Compound `CC(C)CC(=O)Nc1ccc(C(=O)NNC(=S)NC(=O)C2CCCCC2)cc1` has an EC50 of 1 µM. `COc1ccc2ccc3c(c2c1)N=C[C@]1(O3)N(C)c2ccccc2C1(C)C` showed an EC50 of 1.41 µM. For `CCCCCCCCCc1nc2sc3c(c2c(=O)n1NC(=O)c1ccccc1[N+](=O)[O-])CC(C)(C)OC3`, the EC50 was 2.75 µM. `Cc1cc(C)c2ccc(N)nc2c1O` showed an EC50 of 3.33 µM. With `CCc1ccc(N(CC(=O)NC2CC2)S(=O)(=O)c2ccc(C)cc2)cc1` the EC50 was > 15 µM (inactive). `COc1cccc(C(=O)Oc2ccc(/C=N/Nc3ccc(C(=O)O)cc3)cc2OC)c1` was tested, and the EC50 was 6.23 µM. `O=[N+]([O-])c1ccc(Nc2nc(NCCO)nc(N3CCCC3)n2)cc1` showed an EC50 of 5.91 µM. `Cc1cc(C(=O)N/N=C/c2cc(Br)cc([N+](=O)[O-])c2O)c2ccccc2n1` was tested, and the EC50 was 0.893 µM. `CC(C)Cc1csc(NC(=O)c2ccc(Br)cc2)c1C(=O)O` was tested, and the EC50 was 1.57 µM. `COc1cnc(-c2ccccn2)nc1Oc1ccc(C(C)(C)C)cc1` gave an EC50 of 7.68 µM. With `CC(C)(C)c1ccc(OCC(=O)Nc2ccc(C(=O)Nc3ccccc3C(=O)O)cc2)cc1` the EC50 was 1.54 µM. In the case of `Oc1cc(OCc2ccccc2)ccc1-c1[nH]ncc1-c1ccccc1`, the EC50 is reported as 3.06 µM. Work on `Cc1cccc(N2CCN(C(=O)C34CC5CC(CC(C5)C3)C4)CC2)c1C` yielded an EC50 of 5.65 µM. For `COc1ccc(C(=O)OCC(=O)Nc2nnc(-c3ccccc3)o2)cc1`, the EC50 was 6.54 µM. Work on `Cc1cc2nc(CSc3ccccc3)cc(=O)n2[nH]1` yielded an EC50 of 3.82 µM. `CCC(CC)NC(=O)c1oc2ccccc2c1COc1ccccc1` showed an EC50 of 13 µM. For `CCN(c1ccc(C)cc1C)S(=O)(=O)c1nnc(NC(=O)c2ccco2)s1`, the EC50 was 4.2 µM. For `CC(C)(C)c1ccc(C(=O)Nc2ccc(F)cc2)s1`, the EC50 was > 15 µM (inactive). `CC(C)c1ccc(C(=O)NC(=S)Nc2ccc3[nH]c(=O)[nH]c3c2)cc1` showed an EC50 of 6.26 µM.
